For assay [1], the system named is C57/BL6N male mice. The assay is described as follows: Survival time in 4% oxygen after intraperitoneal NaHS or 2-methylthiophene. Format: in vivo, mouse. Conditions: 200 μl i.p. of 1% solution; all individuals; observation time of 30 min. As to the method: Thus, the survival time was measured at the remaining three concentrations. As a control, the survival time of the mice intraperitoneally injected with saline or 2-methylthiophene (1% solution) in 4% oxygen was measured.

Assay [2] has as its system TNF-α. Nature of the assay: Blood TNF-α after LPS and 4E2MT, Trpa1 knockout and control mice. Format: in vivo, mouse. Conditions: 1 hr after simultaneous i.p. administration with LPS. As to the method: Lipopolysaccharide (LPS) (0.6 mg/kg) was intraperitoneally administered to male Balb/c mice (about 2-3 months old) to generate a sepsis model. Immediately after the LPS administration, 200 μl (about 80 mg/kg) of a solution prepared by diluting various heterocyclic compounds and isothiocyanate compounds 100 times with saline was intraperitoneally administered. Blood samples were collected 60 min after LPS and compound administration, EDTA plasma was prepared, and the blood level of inflammatory cytokine TNF-a was measured by the ELISA method.
Changes in the body surface temperature, survival time under a hypoxic environment, and TNF-α production in blood by LPS administration induced by intraperitoneally administration of thiazoline-related compound (4-ethyl-2-methyl-2-thiazoline; 4E2MT) measured by a method similar to those in Example 3, Example 10, or Example 18.

Assay [3] relates to male C57/BL6N mouse. Nature of the assay: Survival time in 4% oxygen after Trpa1 agonist i.p. It is filed as in vivo. The note with it: wild-type mouse; i.p. Δ9-THC 10 mg/kg, AITC 40 mg/kg, APAP 300 mg/kg; 30 min before 4% oxygen; versus saline. As to the method: (§1) Saline or known Trpa1 agonists Δ9-tetrahydrocannabinol (Δ^9-THC; 10 mg/kg), allyl isothiocyanate (AITC; 40 mg/kg), or acetaminophen (APAP; 300 mg/kg) was intraperitoneally administered to male C57/BL6N mouse (about 3-month-old) and, 30 min later, the mouse was placed in a tight box with adjusted oxygen concentration of 4%, and the survival time of the mouse was measured for 30 min at maximum. As to APAP, the survival time in 4% oxygen environment was also measured using male Trpa1 knockout and littermate hetero mice (about 3-to 6-month-old).

Assay [4] has as its system Trpa1 knockout and littermate hetero mice. The assay is described as follows: Survival time in 4% oxygen after APAP i.p., Trpa1 knockout and hetero mice. It is filed as in vivo, mouse. The note with it: 300 mg/kg i.p., versus saline. As to the method: as §1
The conditions of assay [5]: Yu et al., Cell Physiol Biochem 36: 1539-1551, 2015; cited from earlier work.
Assay [6] relates to wild-type and Trpa1 knockout mice. The assay is described as follows: Survival time in 4% oxygen, thiomorpholine i.p., wild-type and Trpa1 knockout mice. Format: in vivo, mouse. Conditions: about 80 mg/kg i.p. As to the method: A heterocyclic compound (thiomorpholine) (200 μl, about 80 mg/kg) diluted 100 times with saline was intraperitoneally injected to male wild-type and Trpa1 knockout mice (about 3 to 6-month-old) and, 30 min later, the mice were placed in a tight box in which the oxygen concentration was adjusted to 4%, and the survival time of the mice was measured.

In assay [7] the test system is mice. The assay is described as follows: Oxygen consumption after intraperitoneal injection. Format: in vivo, mouse. The note with it: versus saline. As to the method:
An influence of a thiazoline-related compound on the oxygen consumption was analyzed. The oxygen consumption was analyzed using an energy metabolism measurement device for small animals (ARCO-2000; ARCO SYSTEM). About 3-month-old C57/BL6N male mice were each placed in a measuring chamber and, after acclimation for about 2 hr, a thiazoline-related compound (2MT) was presented. The odors were presented by placing filter papers scented with 100 μl (104 mmol) of odor molecules in the measuring chamber. As a control, an experiment in which a filter paper dropped with saline was presented to the mice was also performed. The oxygen consumption was measured every one min. Mean oxygen consumption was calculated as the mean of 10 min before presenting odor and 20 min after presenting odor.
Changes in the oxygen consumption induced by intraperitoneal injection of heterocyclic compounds (2MT and Thiomorpholine (TMO) were measured by a method similar to that in Example 8.

In assay [8] the test system is C57/BL6N male mice. The assay is described as follows: Survival time in 4% oxygen after intraperitoneal administration. Format: in vivo, mouse. The note with it: Example 12, about 80 mg/kg i.p., 30 min before 4% oxygen, Kaplan-Meier, versus saline. Here is the method: Influence of intraperitoneal administration of various kinds of heterocyclic compounds on the survival time of mouse under hypoxic environment was analyzed. The odor molecule was administered by a method of intraperitoneally injecting 200 μl (about 80 mg/kg, i.p.) of a solution diluted 100 times with saline and, 30 min later, the mice were placed in a tight box with adjusted oxygen concentration of 4%, and the survival time of the mouse was measured for 30 min at maximum. As a control, the survival time of the mice intraperitoneally injected with saline (control) was measured.
By a method similar to that in Example 10, influence of intraperitoneal administration of various isothiocyanate compounds (about 80 mg/kg, i.p.) on the survival time of mouse under hypoxic environment was analyzed.
About 3-month-old C57/BL6N male mice were intraperitoneally injected with 200 μl (about 80 mg/kg, i.p.) of a thiomorpholine solution diluted 100 times with saline and, 30 min later, the mice were placed in a tight box with adjusted oxygen concentration of 4%, and the survival time of the mouse was measured. As a control, the survival time of the mice intraperitoneally injected with saline was measured.

For the compound `Cc1cccs1` [2-methylthiophene], in assay [1], the “survival time in 4% oxygen” value is no less than 30 min.
Consider `CCC1CSC(C)=N1` (stereo not drawn) [4E2MT, 4-ethyl-2-methyl-2-thiazoline], for which, in assay [2], the “amount of TNF-α in blood (decreasing effect)” value was “this effect was suppressed”.
Turning to `CCCCCc1cc(O)c2c(c1)OC(C)(C)[C@@H]1CCC(C)=C[C@@H]21` [49-THC, Δ9-tetrahydrocannabinol], the “survival time in 4% oxygen” value in assay [3] is given as “extending the survival time”.
On to `C=CCN=C=S` [AITC, allyl isothiocyanate], for which the “survival time in 4% oxygen” value in assay [3] is listed as “extending the survival time”.
`CC(=O)Nc1ccc(O)cc1` [APAP, acetaminophen]: the “survival time in 4% oxygen” value in assay [4] (Trpa1 knockout mice (Trpa1−/−)) was “such effect was not observed”; in assay [4] (control mice (Trpa1+/−)), “extending the survival time”; in assay [3], “extending the survival time”.
Regarding `[Na+].[SH-]` [NaHS], in assay [5], the “protective effects in ischemia-reperfusion injury” value was “protective effects in ischemia-reperfusion injury”.
Turning to `C1CSCCN1` [thiomorpholine], the “survival time in 4% oxygen” value is recorded as “survival time significantly decreased” in assay [6] (Trpa1 knockout mice (Trpa1−/−), compared with wild-type mouse) and “significantly prolonging the survival time” in assay [6] (wild-type mice (Trpa1+/+)). Further, the oxygen consumption entry in assay [7] is reported as “suppress the oxygen consumption”. Also, the “survival time in 4% oxygen (hypoxia resistance)” value in assay [8] was “produces hypoxia resistance”.

The record behind these values is patent US20240382497A1, “PROPHYLACTIC OR THERAPEUTIC AGENT FOR HYPOXIC INJURY, ISCHAEMIA-REPERFUSION INJURY AND INFLAMMATION, CELL PROTECTION AGENT FOR TRANSPLANTATION, AND BIO-PRESERVATION AGENT” (priority 2018, published 2024).
